Article PMC8041284, “Tunable Methacrylamides for Covalent Ligand Directed Release Chemistry” (Journal of the American Chemical Society, 2021)
Like-named read-outs stand apart in the source and are kept apart here.

Molecular target: BTK (Homo sapiens, UniProt Q06187)
Experiment: biochemical
[1] = read-out: BTK inhibition (%), 0.75 uM BTK, […] probe 3l, 15 min preincubation

Chain of BTK (Q06187 402-655 limits assumed): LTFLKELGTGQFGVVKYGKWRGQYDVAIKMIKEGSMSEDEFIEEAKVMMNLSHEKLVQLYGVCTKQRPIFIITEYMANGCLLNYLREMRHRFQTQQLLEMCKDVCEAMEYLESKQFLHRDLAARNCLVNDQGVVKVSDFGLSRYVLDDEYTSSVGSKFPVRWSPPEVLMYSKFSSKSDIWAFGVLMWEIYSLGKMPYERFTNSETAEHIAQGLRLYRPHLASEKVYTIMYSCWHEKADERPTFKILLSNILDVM

| SMILES | inhibition at 10 µM [1] | inhibition at 10 µM (read-out: BTK inhibition (%)) |
| --- | --- | --- |
| N#CC(=C(N)Sc1ccc(N)cc1)c1ccccc1C(F)(F)F [PCM-0095011] | -28.3% |  |
| O=c1[nH]c2ccccc2n1CCN1CCN(c2cccc(C(F)(F)F)c2)CC1 [PCM-0214925] | -34.2% |  |
| O=P1(NCCCl)OCCCN1CCCl (centres unmarked) [PCM-0086467] |  | -10.3% |
| O=C(O)C(=O)CBr [PCM-0216160] | 6.2% |  |
| CC(=O)O[C@H]1C(=O)[C@@]2(C)[C@H]([C@H](OC(=O)c3ccccc3)[C@]3(O)C[C@H](OC(=O)[C@H](O)[C@@H](NC(=O)c4ccccc4)c4ccccc4)C(C)=C1C3(C)C)[C@]1(OC(C)=O)CO[C@@H]1C[C@@H]2O [PCM-0214601] | -17.9% |  |
| CN1CC[C@@H](c2c(O)cc(O)c3c(=O)cc(-c4ccccc4Cl)oc23)[C@@H]1CO [PCM-0215197] | -5.5% |  |
| CC[C@H](C)[C@H](NC(=O)[C@H]([C@@H](C)CC)N(C)C(C)=O)C(=O)N[C@H](C(=O)N[C@@H](CC(C)C)C(=O)[C@@]1(C)CO1)[C@@H](C)O [PCM-0215680] | 23.9% |  |
| COc1ccc2c(c1)/C(=C/c1cnc[nH]1)C(=O)N2 [PCM-0101915] | 47.6% |  |
| O=C(Nc1cccc(C(F)(F)F)c1)Nc1cc(S(=O)(=O)NC2CC2)ccc1-c1ccsc1 [PCM-0095800] | 27% |  |
| NNc1nncc2ccccc12 [PCM-0065163] | -0.9% |  |
| OC[C@H]1O[C@@](CO)(OC[C@@]2(OC[C@@]3(OC[C@@]4(O[C@H]5O[C@H](CO)[C@@H](O)[C@H](O)[C@H]5O)O[C@H](CO)[C@@H](O)[C@@H]4O)O[C@H](CO)[C@@H](O)[C@@H]3O)O[C@H](CO)[C@@H](O)[C@@H]2O)[C@@H](O)[C@@H]1O [PCM-0216335] | 6.9% |  |
| CCC/C=C1\OC(=O)C2=C1CCC=C2 [PCM-0216295] | 14.7% |  |
| O=S(=O)(N=Cc1c(O)ccc2ccccc12)c1cccs1 [PCM-0215452] | -11.6% |  |
| C[C@@H]1CC[C@@]2(OC1)O[C@H]1C[C@H]3[C@@H]4CC=C5C[C@@H](O[C@@H]6O[C@H](CO)[C@@H](O)[C@H](O[C@@H]7O[C@H](CO)[C@@H](O)[C@H](O)[C@H]7O)[C@H]6O[C@@H]6O[C@@H](C)[C@H](O)[C@@H](O)[C@H]6O)CC[C@]5(C)[C@H]4CC[C@]3(C)[C@H]1[C@@H]2C [PCM-0215006] | -3.1% |  |
| NCC(CC(=O)O)c1ccccc1 (centres unmarked) [PCM-0215126] |  | -9.3% |
| O[C@@H](c1cc(C(F)(F)F)nc2c(C(F)(F)F)cccc12)[C@H]1CCCCN1 [PCM-0214801] | -4.7% |  |
| CCCCNc1ccc(C(=O)OCCN(C)C)cc1 [PCM-0064772] | 10.9% |  |
| O=C(O)CCNc1cc(N2CCc3ccccc3CC2)nc(-c2ccccn2)n1 [PCM-0215478] | -3.1% |  |
| Cc1cc(O)c(C(=O)CCC(C)C)c(=O)o1 [PCM-0216387] | 5.4% |  |
| O=C(c1ccccc1)c1ccc2n1CCC2C(=O)O (centres unmarked) [PCM-0065461] | -11.7% |  |
| Cc1ccc(NC(=O)Nc2cc(-c3ccccc3-c3nn[nH]n3)ccc2N(CC(C)C)CC(C)C)cc1 [PCM-0215955] | 72.6% |  |
| N[C@@H]1CN(c2c(F)cc3c(=O)c(C(=O)O)cn([C@@H]4C[C@@H]4F)c3c2Cl)CC12CC2 [PCM-0095203] | -6.8% |  |
| Cc1cc(N2CCCCC2)nc2ccccc12 [PCM-0215982] | 10% |  |
| Nc1nc(Nc2ccc(S(N)(=O)=O)cc2)nn1C(=O)c1c(F)cccc1F [PCM-0095002] | 84.1% |  |
| Cc1ccc(-c2cc(C(F)(F)F)nn2-c2ccc(S(N)(=O)=O)cc2)cc1 [PCM-0065035] | 22.8% |  |
| Cn1c(COP(=O)(NCCBr)NCCBr)cnc1[N+](=O)[O-] [PCM-0214844] |  | -4.7% |
| CCOC(=O)c1[nH]c2cc(Cl)ccc2c1C(C(=O)NC(C)(C)C)N(C=O)Cc1ccc(Cl)cc1 (centres unmarked) [PCM-0095744] | 13.1% |  |
| CC1(C)CCCC2(C)OC(=O)C=C12 (centres unmarked) [PCM-0214965] | 8.6% |  |
| C[Si](C)(C)N=C(O[Si](C)(C)C)C(F)(F)F [PCM-0216107] | -6.9% |  |
